Experimental data as given in PubChem BioAssay (NCI).
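Five concentrations, 48 hours, 96-well plates. The concentration for 50% growth inhibition is given as GI50. The concentration for full growth arrest is given as TGI.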

Key:
Assay in all cases: NCI-60 cell line screen, 48 h
DU-145 prostate = test system: DU-145 prostate
SK-MEL-28 melanoma = test system: SK-MEL-28 melanoma
MDA-MB-231 breast = test system: MDA-MB-231 breast
NCI-H460 lung = test system: NCI-H460 lung
HS 578T breast = test system: HS 578T breast
SR leukemia = test system: SR leukemia
OVCAR-5 ovarian = test system: OVCAR-5 ovarian
HOP-92 NSCLC = test system: HOP-92 NSCLC
CAKI-1 renal = test system: CAKI-1 renal
CCRF-CEM leukemia = test system: CCRF-CEM leukemia
HT29 colon = test system: HT29 colon
LOX IMVI melanoma = test system: LOX IMVI melanoma
UO-31 renal = test system: UO-31 renal
UACC-257 melanoma = test system: UACC-257 melanoma
MOLT-4 leukemia = test system: MOLT-4 leukemia
NCI-H226 lung = test system: NCI-H226 lung
SNB-19 CNS = test system: SNB-19 CNS
HL-60(TB) leukemia = test system: HL-60(TB) leukemia
T-47D breast = test system: T-47D breast
RPMI-8226 leukemia = test system: RPMI-8226 leukemia
HCT-116 colon = test system: HCT-116 colon
OVCAR-3 ovarian = test system: OVCAR-3 ovarian
COLO 205 colon = test system: COLO 205 colon
ACHN renal = test system: ACHN renal
NCI-H522 lung = test system: NCI-H522 lung
SF-295 CNS = test system: SF-295 CNS
A498 renal = test system: A498 renal
M14 melanoma = test system: M14 melanoma
OVCAR-8 ovarian = test system: OVCAR-8 ovarian
UACC-62 melanoma = test system: UACC-62 melanoma
HOP-62 NSCLC = test system: HOP-62 NSCLC
SF-268 CNS = test system: SF-268 CNS
BT-549 breast = test system: BT-549 breast
TK-10 renal = test system: TK-10 renal
SF-539 CNS = test system: SF-539 CNS
SNB-75 CNS = test system: SNB-75 CNS
MDA-MB-435 = test system: MDA-MB-435
RXF 393 renal = test system: RXF 393 renal
A549 NSCLC = test system: A549 NSCLC
SK-MEL-5 melanoma = test system: SK-MEL-5 melanoma
PC-3 prostate = test system: PC-3 prostate
786-0 renal = test system: 786-0 renal
SK-OV-3 ovarian = test system: SK-OV-3 ovarian
NCI/ADR-RES ovarian = test system: NCI/ADR-RES ovarian
HCC-2998 colon = test system: HCC-2998 colon
KM12 colon = test system: KM12 colon
U251 CNS = test system: U251 CNS
OVCAR-4 ovarian = test system: OVCAR-4 ovarian
SN12C renal = test system: SN12C renal
MALME-3M melanoma = test system: MALME-3M melanoma
IGROV1 ovarian = test system: IGROV1 ovarian
SK-MEL-2 melanoma = test system: SK-MEL-2 melanoma
EKVX NSCLC = test system: EKVX NSCLC
NCI-H23 lung = test system: NCI-H23 lung
MCF7 breast = test system: MCF7 breast
K-562 leukemia = test system: K-562 leukemia
HCT-15 colon = test system: HCT-15 colon
SW-620 colon = test system: SW-620 colon

## COc1cc2c3c(n(CCCNC4CCC4)c(=O)c2cc1OC)-c1cc2c(cc1C3=O)OCO2
DU-145 prostate
  GI50: 1.04 µM
  TGI: 2.56 µM
SK-MEL-28 melanoma
  GI50: 1.75 µM
  TGI: 3.38 µM
MDA-MB-231 breast
  GI50: 1.32 µM
  TGI: 2.78 µM
NCI-H460 lung
  GI50: 0.145 µM
  TGI: 1.66 µM
HS 578T breast
  GI50: 6.32 µM
  TGI: 15.8 µM
SR leukemia
  GI50: 0.0576 µM
  TGI: 0.793 µM
OVCAR-5 ovarian
  GI50: 1.89 µM
  TGI: 3.44 µM
HOP-92 NSCLC
  GI50: 5.26 µM
  TGI: 13.4 µM
CAKI-1 renal
  GI50: 1.11 µM
  TGI: 2.37 µM
CCRF-CEM leukemia
  GI50: 0.0757 µM
  TGI: 3.55 µM
HT29 colon
  GI50: 1.28 µM
  TGI: 2.85 µM
LOX IMVI melanoma
  GI50: 0.36 µM
  TGI: 0.884 µM
UO-31 renal
  GI50: 1.66 µM
  TGI: 4.53 µM
UACC-257 melanoma
  GI50: 16.3 µM
  TGI: 34.2 µM
MOLT-4 leukemia
  GI50: 0.0267 µM
  TGI: 1.91 µM
NCI-H226 lung
  GI50: 5.54 µM
  TGI: 26.1 µM
SNB-19 CNS
  GI50: 1.24 µM
  TGI: 3.18 µM
HL-60(TB) leukemia
  GI50: 0.525 µM
  TGI: 1.52 µM
T-47D breast
  GI50: 3.73 µM
  TGI: 10.2 µM
RPMI-8226 leukemia
  GI50: 0.492 µM
  TGI: 2.18 µM
HCT-116 colon
  GI50: 1.05 µM
  TGI: 2.78 µM
OVCAR-3 ovarian
  GI50: 1.51 µM
  TGI: 3.05 µM
COLO 205 colon
  GI50: 1.79 µM
  TGI: 6.62 µM
ACHN renal
  GI50: 0.873 µM
  TGI: 2.36 µM
NCI-H522 lung
  GI50: 0.581 µM
  TGI: 2.49 µM
SF-295 CNS
  GI50: 0.274 µM
  TGI: 1.74 µM
A498 renal
  GI50: 14.5 µM
  TGI: 29.2 µM
M14 melanoma
  GI50: 1.35 µM
  TGI: 2.8 µM
OVCAR-8 ovarian
  GI50: 1.3 µM
  TGI: 3.61 µM
UACC-62 melanoma
  GI50: 4.2 µM
  TGI: 12.5 µM
HOP-62 NSCLC
  GI50: 0.393 µM
  TGI: 1.97 µM
SF-268 CNS
  GI50: 0.95 µM
  TGI: 2.83 µM
BT-549 breast
  GI50: 7.27 µM
  TGI: 22.5 µM
TK-10 renal
  GI50: 19 µM
  TGI: 33.7 µM
SF-539 CNS
  GI50: 1.21 µM
  TGI: 2.56 µM
SNB-75 CNS
  GI50: 1.12 µM
  TGI: 2.64 µM
MDA-MB-435
  GI50: 1.59 µM
  TGI: 3.05 µM
RXF 393 renal
  GI50: 1.34 µM
  TGI: 2.85 µM
A549 NSCLC
  GI50: 1.3 µM
  TGI: 3.31 µM
SK-MEL-5 melanoma
  GI50: 5.09 µM
  TGI: 10.3 µM
PC-3 prostate
  GI50: 1.22 µM
  TGI: 2.87 µM
786-0 renal
  GI50: 1.54 µM
  TGI: 3.05 µM
SK-OV-3 ovarian
  GI50: 0.977 µM
  TGI: 5.63 µM
NCI/ADR-RES ovarian
  GI50: 1.09 µM
  TGI: 3.61 µM
HCC-2998 colon
  GI50: 1.42 µM
  TGI: 2.82 µM
KM12 colon
  GI50: 2.01 µM
  TGI: 5.72 µM
U251 CNS
  GI50: 0.838 µM
  TGI: 2.87 µM
OVCAR-4 ovarian
  GI50: 1.77 µM
  TGI: 3.33 µM
SN12C renal
  GI50: 1.48 µM
  TGI: 3.19 µM
MALME-3M melanoma
  GI50: 4.34 µM
  TGI: 9.28 µM
IGROV1 ovarian
  GI50: 1.48 µM
  TGI: 3.5 µM
SK-MEL-2 melanoma
  GI50: 18.4 µM
  TGI: 33.7 µM
EKVX NSCLC
  GI50: 1.96 µM
  TGI: 4.14 µM
NCI-H23 lung
  GI50: 1.29 µM
  TGI: 3.19 µM
MCF7 breast
  GI50: 0.109 µM
  TGI: 1.87 µM
K-562 leukemia
  GI50: 0.554 µM
  TGI: 3.22 µM
HCT-15 colon
  GI50: 1.33 µM
  TGI: 3.13 µM
SW-620 colon
  GI50: 0.452 µM
  TGI: 2.56 µM

## O=C(NNc1nc2cc(F)c(F)cc2n2cccc12)c1ccncn1
DU-145 prostate
  GI50: 0.4 µM
  TGI: 18.2 µM
SK-MEL-28 melanoma
  GI50: 0.771 µM
  TGI: 6.35 µM
MDA-MB-231 breast
  GI50: 0.839 µM
  TGI: 6.95 µM
NCI-H460 lung
  GI50: 0.161 µM
  TGI: 9.46 µM
HS 578T breast
  GI50: 2.94 µM
  TGI: 20.4 µM
SR leukemia
  GI50: 0.146 µM
  TGI: > 12.3 µM
OVCAR-5 ovarian
  GI50: 1.19 µM
  TGI: 11.4 µM
HOP-92 NSCLC
  GI50: 0.697 µM
  TGI: 6.38 µM
CAKI-1 renal
  GI50: 0.286 µM
  TGI: 4.22 µM
CCRF-CEM leukemia
  GI50: 0.142 µM
  TGI: > 30 µM
HT29 colon
  GI50: 0.395 µM
  TGI: 15.3 µM
LOX IMVI melanoma
  GI50: 0.191 µM
  TGI: 5.11 µM
UO-31 renal
  GI50: 0.14 µM
  TGI: 4.19 µM
UACC-257 melanoma
  GI50: 0.926 µM
  TGI: 5.88 µM
MOLT-4 leukemia
  GI50: 0.179 µM
  TGI: > 30 µM
NCI-H226 lung
  GI50: 0.381 µM
  TGI: 5.66 µM
SNB-19 CNS
  GI50: 0.417 µM
  TGI: 10.6 µM
HL-60(TB) leukemia
  GI50: 0.39 µM
  TGI: > 14.8 µM
T-47D breast
  GI50: 0.353 µM
  TGI: 5.17 µM
RPMI-8226 leukemia
  GI50: 0.571 µM
  TGI: > 20.9 µM
HCT-116 colon
  GI50: 0.217 µM
  TGI: 5.43 µM
OVCAR-3 ovarian
  GI50: 0.301 µM
  TGI: 5.16 µM
COLO 205 colon
  GI50: 0.313 µM
  TGI: 4.06 µM
ACHN renal
  GI50: 0.187 µM
  TGI: 3.93 µM
NCI-H522 lung
  GI50: 0.803 µM
  TGI: 11.6 µM
SF-295 CNS
  GI50: 0.156 µM
  TGI: 3.87 µM
A498 renal
  GI50: 1.14 µM
  TGI: 5.62 µM
M14 melanoma
  GI50: 0.37 µM
  TGI: 8.6 µM
OVCAR-8 ovarian
  GI50: 0.253 µM
  TGI: 9.55 µM
UACC-62 melanoma
  GI50: 0.333 µM
  TGI: 5.14 µM
HOP-62 NSCLC
  GI50: 0.199 µM
  TGI: 6.66 µM
SF-268 CNS
  GI50: 0.408 µM
  TGI: 9.39 µM
BT-549 breast
  GI50: 1.4 µM
  TGI: 8.94 µM
TK-10 renal
  GI50: 0.547 µM
  TGI: 5.18 µM
SF-539 CNS
  GI50: 0.596 µM
  TGI: 6.3 µM
SNB-75 CNS
  GI50: 0.365 µM
  TGI: 6.35 µM
MDA-MB-435
  GI50: 1.12 µM
  TGI: 6.96 µM
RXF 393 renal
  GI50: 0.834 µM
  TGI: 5.16 µM
A549 NSCLC
  GI50: 0.275 µM
  TGI: 20.2 µM
SK-MEL-5 melanoma
  GI50: 0.745 µM
  TGI: 5.12 µM
PC-3 prostate
  GI50: 0.309 µM
  TGI: > 13.4 µM
786-0 renal
  GI50: 1.01 µM
  TGI: 6.64 µM
SK-OV-3 ovarian
  GI50: 0.522 µM
  TGI: 5.16 µM
NCI/ADR-RES ovarian
  GI50: 0.225 µM
  TGI: 6.33 µM
HCC-2998 colon
  GI50: 0.452 µM
  TGI: 4.55 µM
KM12 colon
  GI50: 0.331 µM
  TGI: 12.5 µM
U251 CNS
  GI50: 0.182 µM
  TGI: 7.02 µM
OVCAR-4 ovarian
  GI50: 0.18 µM
  TGI: 3.61 µM
SN12C renal
  GI50: 0.678 µM
  TGI: 9.34 µM
MALME-3M melanoma
  GI50: 1.5 µM
  TGI: 6.77 µM
IGROV1 ovarian
  GI50: 0.206 µM
  TGI: 4.87 µM
SK-MEL-2 melanoma
  GI50: 3.52 µM
  TGI: 11.5 µM
EKVX NSCLC
  GI50: 0.255 µM
  TGI: 4.93 µM
NCI-H23 lung
  GI50: 1.26 µM
  TGI: 11.5 µM
MCF7 breast
  GI50: 0.235 µM
  TGI: 3.93 µM
K-562 leukemia
  GI50: 0.173 µM
  TGI: > 30 µM
HCT-15 colon
  GI50: 0.119 µM
  TGI: 5.52 µM
SW-620 colon
  GI50: 0.313 µM
  TGI: 12.2 µM
